This note sets out measurements from US7655816B2, “Method for stabilizing menthyl lactate” (Millennium Specialty Chemicals, priority 2007, dated 2010).

The data set is classed as physicochemical. Conditions: for GC purity after storage / acid number after storage / appearance after storage / odor after storage: after storage for 39 months in a closed glass jar. An excerpt:
Precipitation according to the method of the invention provides menthyl lactate having improved stability compared with that of an unprecipitated sample. By “improved stability,” we mean that one or more important physical properties of the menthyl lactate becomes more constant as a function of time as a consequence of precipitation when compared with menthyl lactate that has not been precipitated according to the method. Important physical properties include, without limitation, appearance, dimensional stability, color, texture, organoleptic properties (odor, flavor), melting point, acid number, GC purity, optical rotation, pH, solubility, and the like. Preferably, the ML retains its desirable physical property or properties even after prolonged storage. “Prolonged” depends on the particular application, but it is preferably at least one week, more preferably at least one month, and most preferably at least one year.
After storage for 39 months in a closed glass jar, the product is evaluated for quality.
A sample of solid menthyl lactate from the same batch that was used in Example 1 is stored under similar conditions for the same 39 months. […] Mp: 39.3° C.; GC purity: <96%; acid number: 32 mg KOH/g.

SMILES strings stand for the structures.

Regarding `CC1CCC(C(C)C)C(OC(=O)C(C)O)C1` (stereo not drawn) [Comparative Example 3, menthyl lactate], the “melting point after storage” value was 36.7 °C, the “GC purity after storage” value stood at 92%, the “acid number after storage” value was found to be 20 mg KOH/g and the appearance after storage entry was “shrinks”. The odor after storage result was “strong, pungent acidic odor”.
For the molecule `CC1CCC(C(C)C)C(OC(=O)C(C)O)C1` (stereo not drawn) [Comparative Example 4, menthyl lactate], the “melting point after storage” value amounted to 43.6 °C, the “acid number after storage” value is 0.27 mg KOH/g and the odor after storage entry is on record as “some deterioration of odor quality”.
Regarding `CC1CCC(C(C)C)C(OC(=O)C(C)O)C1` (stereo not drawn) [Example 1, menthyl lactate], the “melting point after storage” value was found to be 43.9 °C; the “GC purity after storage” value is given as no less than 99.8%; the “acid number after storage” value is recorded as 0.15 mg KOH/g; the appearance after storage result is “fine, white crystalline powder”. The odor after storage entry is listed as “faint, minty”.
With `CC1CCC(C(C)C)C(OC(=O)C(C)O)C1` (stereo not drawn) [compound 2, menthyl lactate], the “melting point after storage” value stood at 39.3 °C; the “GC purity after storage” value is on record as less than 96%; the “acid number after storage” value is reported as 32 mg KOH/g; the odor after storage result was “strong, pungent acidic odor”.
Regarding `CC1CCC(C(C)C)C(OC(=O)C(C)O)C1` (stereo not drawn) [compound 5, menthyl lactate], the “melting point after storage” value is 43.7 °C; the “GC purity after storage” value is listed as 97%; the “acid number after storage” value was determined as 0.32 mg KOH/g; the odor after storage entry is reported as “strong, pungent acidic odor”.
